In patent US20080039422A1, “Vitamin B12-Containing Compositions and Methods of Use” (Transition Therapeutics Inc., priority 2004, published 2008):
Several values for one entry are separate records, joined by “and”; a condition that tells them apart may be missing. Equal entries are not always repeated.

Assay: Solubility study (saturated solubility of CN-Cbl, 25°C, 16 hours, UV)
Format: physicochemical
Description: During the solubility study the following were investigated: • cosolvents (mixtures of ethanol and propylene glycol) • in-situ salt formers • surfactants • pH effects • in-situ salt formers and cosolvents Solubility Study Method
Results of CN-Cbl Solubility in Water and Determination of Equilibrium Time

[1] = Ref. FD4068 29A, buffer Sodium citrate, citric acid, Initial pH 2.64
[2] = Ref. FD4068 30A, buffer Sodium citrate, citric acid, Initial pH 4.75
[3] = Ref. FD4068 30B, buffer Disodium hydrogen phosphate, sodium dihydrogen phosphate, Initial pH 7.03
[4] = Ref. FD4068 31A, buffer Diethanolamine, hydrochloric acid, Initial pH 8.93

Saturated Solubility (0.1 M Choline (12.12 mg/ml), Initial pH 12.54): 29.5 mg/mL
Saturated Solubility (0.1 M Diethanolamine (10.51 mg/ml), Initial pH 10.80): 18.1 mg/mL
Saturated Solubility (0.1 M L-arginine (17.42 mg/ml), Initial pH 10.88): 18.2 mg/mL
Saturated Solubility (0.1 M L-lysine (16.42 mg/ml), Initial pH 9.60): 16.3 mg/mL
Saturated Solubility (0.1 M Meglumine (19.52 mg/ml), Initial pH 11.00): 18.0 mg/mL
Saturated Solubility (0.1 M Triethanolamine (14.92 mg/ml), Initial pH 10.13): 18.6 mg/mL
Saturated Solubility (0.1 M Triethylamine (10.12 mg/ml), Initial pH 11.64): 24.9 mg/mL
Saturated Solubility (Ref. FD4068 14A, Propylene glycol 30% v/v, Ethanol 5% v/v): 36.6 mg/mL
Saturated Solubility (Ref. FD4068 15A, Propylene glycol 32% v/v, Ethanol 5% v/v): 39.8 mg/mL
Saturated Solubility (Ref. FD4068 15B, Propylene glycol 34% v/v, Ethanol 5% v/v): 39.1 mg/mL
Saturated Solubility (Ref. FD4068 15C, Propylene glycol 36% v/v, Ethanol 5% v/v): 41.8 mg/mL
Saturated Solubility (Ref. FD4068 16A, Propylene glycol 38% v/v, Ethanol 5% v/v): 45.5 mg/mL
Saturated Solubility (Ref. FD4068 16B, Propylene glycol 40% v/v, Ethanol 5% v/v): 48.1 mg/mL
Saturated Solubility (Ref. FD4068 16C, Propylene glycol 30% v/v, Ethanol 10% v/v): 45.6 mg/mL
Saturated Solubility (Ref. FD4068 16D, Propylene glycol 32% v/v, Ethanol 10% v/v): 45.8 mg/mL
Saturated Solubility (Ref. FD4068 17A, Propylene glycol 34% v/v, Ethanol 10% v/v): 47.8 mg/mL
Saturated Solubility (Ref. FD4068 17B, Propylene glycol 36% v/v, Ethanol 10% v/v): 51.0 mg/mL
Saturated Solubility (Ref. FD4068 17C, Propylene glycol 38% v/v, Ethanol 10% v/v): 52.2 mg/mL
Saturated Solubility (Ref. FD4068 17D, Propylene glycol 40% v/v, Ethanol 10% v/v (no surfactant)): 53.8 mg/mL
Saturated Solubility (Ref. FD4068 26A, 5% w/v Polysorbate 80, 40% v/v propylene glycol, 10% v/v ethanol): 49.0 mg/mL
Saturated Solubility (Ref. FD4068 26B, 5% w/v Polysorbate 20, 40% v/v propylene glycol, 10% v/v ethanol): 46.5 mg/mL
Saturated Solubility (Ref. FD4068 26C, 5% w/v Paloxamer 188, 40% v/v propylene glycol, 10% v/v ethanol): 45.1 mg/mL
Saturated Solubility (Ref. FD4068 27A, 5% w/v Cremophor RH40, 40% v/v propylene glycol, 10% v/v ethanol): 47.1 mg/mL
Saturated Solubility [1]: 15.3 mg/mL
pH of CN-Cbl Solution [1]: 2.89
Saturated Solubility [2]: 15.0 mg/mL
pH of CN-Cbl Solution [2]: 4.83
Saturated Solubility [3]: 13.6 mg/mL
pH of CN-Cbl Solution [3]: 7.02
Saturated Solubility [4]: 17.5 mg/mL
pH of CN-Cbl Solution [4]: 8.80
pH of CN-Cbl Solution (Ref. FD4068 33, 0.1 M Choline, 40% v/v propylene glycol, 10% v/v ethanol): 12.61
Saturated Solubility (Ref. FD4068 33, Choline 0.100 M (12.12 mg/ml), 40% v/v propylene glycol, 10% v/v ethanol): 91.8 mg/ml and 0.068 M
pH of CN-Cbl Solultion (Ref. FD4068 33, Choline 0.100 M, 40% v/v propylene glycol, 10% v/v ethanol, Initial pH 12.68): 12.6 and 12.61
pH of CN-Cbl Solution (Ref. FD4068 34, 0.1 M Triethylamine, 40% v/v propylene glycol, 10% v/v ethanol): 10.97
Saturated Solubility (Ref. FD4068 38A, 10% v/v Ethanol, 40% v/v Propylene Glycol, 0.1 M Choline, pH adjusted with hydrochloric acid, Initial pH 8.58): 60.3 mg/mL
pH of CN-Cbl Solution (Ref. FD4068 38A, 10% v/v Ethanol, 40% v/v Propylene Glycol, 0.1 M Choline, Initial pH 8.58): 8.10
Saturated Solubility (Ref. FD4068 38B, 10% v/v Ethanol, 40% v/v Propylene Glycol, 0.1 M Choline, pH adjusted with hydrochloric acid, Initial pH 7.85): 59.4 mg/mL
pH of CN-Cbl Solution (Ref. FD4068 38B, 10% v/v Ethanol, 40% v/v Propylene Glycol, 0.1 M Choline, Initial pH 7.85): 7.70
Saturated Solubility (Ref. FD4068 39B, 10% v/v Ethanol, 40% v/v Propylene Glycol, 0.1 M Choline, pH adjusted with hydrochloric acid, Initial pH 8.99): 63.1 mg/mL
pH of CN-Cbl Solution (Ref. FD4068 39B, 10% v/v Ethanol, 40% v/v Propylene Glycol, 0.1 M Choline, Initial pH 8.99): 8.01
Saturated Solubility (Ref. FD4068 39C, 10% v/v Ethanol, 40% v/v Propylene Glycol, 0.1 M Choline, pH adjusted with hydrochloric acid, Initial pH 7.43): 63 mg/mL
pH of CN-Cbl Solution (Ref. FD4068 39C, 10% v/v Ethanol, 40% v/v Propylene Glycol, 0.1 M Choline, Initial pH 7.43): 8.00
Saturated Solubility (Ref. FD4068 42A, Choline 0.055 M (6.71 mg/ml), 40% v/v propylene glycol, 10% v/v ethanol): 80.8 mg/ml and 0.060 M
pH of CN-Cbl Solultion (Ref. FD4068 42A, Choline 0.055 M, 40% v/v propylene glycol, 10% v/v ethanol, Initial pH 12.49): 12.44
Saturated Solubility (Ref. FD4068 42B, Choline 0.068 M (8.23 mg/ml), 40% v/v propylene glycol, 10% v/v ethanol): 82.8 mg/ml and 0.061 M
pH of CN-Cbl Solultion (Ref. FD4068 42B, Choline 0.068 M, 40% v/v propylene glycol, 10% v/v ethanol, Initial pH 12.63): 12.53
Saturated Solubility (Ref. FD4068 43A, Choline 0.111 M (13.41 mg/ml), 40% v/v propylene glycol, 10% v/v ethanol): 92.1 mg/ml and 0.068 M
pH of CN-Cbl Solultion (Ref. FD4068 43A, Choline 0.111 M, 40% v/v propylene glycol, 10% v/v ethanol, Initial pH 12.80): 12.76
pH of CN-Cbl Solution (Ref. FD4068 89B, 0.15 ml 2m HCl + 0.025M pH 5.6 citrate buffer, Choline 0.044 M): 6.97
Substance: cyanocobalamin [CN-Cbl]
